The values that follow come from the SangsterLogP compilation.

SMILES strings stand for the structures.

In the case of `O=[N+]([O-])C=C(NC1CCCCC1)NS(=O)(=O)c1cnccc1NC1CCCCC1`, the logP (usually the decadic logarithm of the partition coefficient of the neutral form, usually between octanol and water) is 1.59. To `CCCCCCCCNc1ccncc1S(=O)(=O)NC(=C[N+](=O)[O-])NCCCCCCC` belongs 2.59. To `CCCCCCCNc1ccncc1S(=O)(=O)NC(=C[N+](=O)[O-])NCCCCCC` belongs 1.99; to `CCNc1ccncc1S(=O)(=O)NC(=C[N+](=O)[O-])NC(C)C`, -0.48.

In the case of `CCCCCCNC(=C[N+](=O)[O-])NS(=O)(=O)c1cnccc1Nc1cccc(C)c1`, the lipophilicity (logP) stood at 1.66. To `CCCCCCCNC(=C[N+](=O)[O-])NS(=O)(=O)c1cnccc1NCCCCCC` belongs 1.97.

Molecule `CCCCCCNC(=C[N+](=O)[O-])NS(=O)(=O)c1cnccc1NCCCCCC` gave a logP of 1.67. Then `CCCCCCCCNC(=C[N+](=O)[O-])NS(=O)(=O)c1cnccc1NCCCCCC`, with 2.27; and `CCCCCCCNC(=C[N+](=O)[O-])NS(=O)(=O)c1cnccc1NCCCCCCC`, with 2.3. Regarding `CCCCCCCCNc1ccncc1S(=O)(=O)NC(=C[N+](=O)[O-])NCCCCCC`, the logP turned out to be 2.31. Then `CCCCCCCCNC(=C[N+](=O)[O-])NS(=O)(=O)c1cnccc1NCCCCCCCC`, with 2.86.
